According to patent US10125121B2, “FYN kinase inhibitors” (ROTTAPHARM BIOTECH S.R.L., priority 2015, dated 2018):
Read-outs that look alike come from different tables or passages of the source. Blank lines part the entries; values can stand above or below the compound they belong to.

Assays:
CFA induced hyperalgesia = assay: CFA-induced inflammatory pain in rats (Randall-Selitto paw withdrawal threshold); assay type: in vivo; settings: rat, 24 h after administration
Method: Male Wistar rats were injected into the right hind footpad with 300 μg of Mycobacterium tuberculosis in 100 μL of liquid paraffin (Complete Freund's Adjuvant; CFA). Seventy-two hours later, compounds 2 and 26 were administered subcutaneously and 24 h after the administration, the response to noxious mechanical stimulation was assessed by measuring paw withdrawal threshold (PWT) with an analgesimeter of the Randall-Selitto type. Animals were gently restrained, and steadily increasing pressure was applied to the dorsal surface of both the ipsi-lateral (CFA-treated) and the contra-lateral paw via a dome-shaped plastic tip.
100% protection means that the animal treated with the compound and CFA can tolerate the same stimulus (weight) as the control animal which has not received CFA treatment.

[1] = system: NF-kB activation in JB6 CI 41-5a (P+) cells; assay: Gene reporter (GR) assay, NF-kB luciferase after TNFα stimulation; assay type: cell-based, murine; settings: 1 h pre-treatment, 2 ng/ml TNFα for 4 h, read-out: IC50(nM) GR Inhibition
Text: To determine if the compounds of the invention were active also in a cellular model, a gene reporter assay was established in a cell line (JB6 CI 41-5a (P+)) know to activate Fyn kinase via an inflammatory stimuli (TNFα). GR assay measures the activation of the nuclear transcription factor NF-kB, situated down-stream the Fyn activation pathway. Products active in this analysis has to penetrate in the cell and inhibit the activation pathway of NF-kB.
The murine epithelial cell line JB6 CI 41-5a (P+) (ATCC® Cat. # CRL-2010) was stably transfected with the pGL4.32[luc2P/NFkB-RE/Hygro] vector (Promega). Clonal selection was achieved by limiting dilution in MEM (+Earle's BSS+1.5 g/l sodium bicarbonate+0.1 mM NEAA)+GlutaMAX™-I, +1 mM sodium pyruvate, +5% FBS+80 μg/ml Hygromycin B. The clones were tested for their response to TNFα stimulus. The obtained transfected cells (JB6(P+) NFkB-RE-luc2P T3-C10) contained a firefly luciferase gene (luc2P) under the control of minimal TATA promoter with multiple Nuclear Factor-kB response elements (NFkB-REs). These NFkB-REs are DNA binding sequences for the NF-kB transcription factor.
JB6(P+) NFkB-RE-luc2P T3-C10 cells were used for the analysis of NF-kB activity modulation, after TNFα stimulation, by Fyn-inhibitors (Hwang et al.; Biochem. Pharmacol. 2009, 77 (7):1213-22).
6000 cells/well were plated in a 96× well plate. After 24 h new medium without antibiotics was given. After further 24 h the cells were pre-treated with the different compounds for 1 h and then stimulated with 2 ng/ml TNFα for 4 h. In each experiments two positive standards were always used, and each tested condition was analyzed in quadruplicate.
The luciferase analysis was performed with ONE-Glo™+ToxLuciferase Reporter and Cell Viability Assay kit (Promega). This assay combined luciferase assay chemistry with a cell viability marker to better understand reporter gene expression in the context of cell health. The assay uses a two-step process. The first part of the assay was a non-lytic fluorescence assay (CellTiter-Fluor™ Cell Viability Assay) that measured the relative number of live cells in a culture population, as it measures a conserved and constitutive protease activity within live cells. The live-cell protease activity was restricted to intact viable cells and was measured using a fluorogenic, cell-permeant peptide substrate (glycyl-phenylalanyl-aminofluorocoumarin; GF-AFC). The generated fluorescent signal, proportional to the number of living cells, was measured with EnVision microplate reader (PerkinElmer) using an excitation wavelength of 400 nm and emission wavelength of 500 nm.
The second part of the assay uses the ONE-Glo™ Luciferase Assay System to quantify firefly luciferase reporter gene expression. The ONE-Glo™ Assay contained a fluoro-luciferin substrate, more tolerant to sample components than standard luciferase assay reagents. Luminescence was measured with EnVision microplate reader (PerkinElmer).
Compounds of Formula (I) were tested for their capacity to penetrate into the cell and inhibit the activation pathway of NF-kB.

[2] = molecular target: active FYN (human recombinant, 62.7 kDa) (Homo sapiens, UniProt P06241); assay: In vitro kinase assay (Z′-LYTE FRET); assay type: biochemical; settings: read-out: IC50(nM) FYN INHIBITION
active FYN (human recombinant, 62.7 kDa), sequence (P06241 whole entry): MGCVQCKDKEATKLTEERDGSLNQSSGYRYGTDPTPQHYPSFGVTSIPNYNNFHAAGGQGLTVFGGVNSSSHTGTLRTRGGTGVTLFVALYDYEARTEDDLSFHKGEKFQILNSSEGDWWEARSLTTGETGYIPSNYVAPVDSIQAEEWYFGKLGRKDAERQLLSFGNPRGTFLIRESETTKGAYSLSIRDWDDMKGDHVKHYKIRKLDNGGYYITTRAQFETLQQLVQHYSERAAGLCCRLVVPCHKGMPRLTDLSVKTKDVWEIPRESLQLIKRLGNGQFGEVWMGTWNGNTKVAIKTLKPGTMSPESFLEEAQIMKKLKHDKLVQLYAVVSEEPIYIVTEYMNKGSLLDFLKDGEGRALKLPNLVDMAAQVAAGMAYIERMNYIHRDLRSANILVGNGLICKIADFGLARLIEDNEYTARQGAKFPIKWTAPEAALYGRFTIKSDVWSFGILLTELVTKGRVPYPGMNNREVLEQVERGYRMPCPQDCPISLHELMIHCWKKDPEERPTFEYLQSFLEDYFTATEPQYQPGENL
Method: Assays to determine the kinase inhibitory activity of compounds were performed using an automatic liquid handling device (Microlab STAR Hamilton) and Z′-LYTE™ Kinase Assay Platform, a Fluorescence Resonance Energy Transfer (FRET)-based assay platform compatible with high-throughput screening (HTS) applications. The assay employs a fluorescence-based, coupled-enzyme format and utilizes the differential sensitivity of phosphorylated and non-phosphorylated peptides to proteolytic cleavage.
All reagents were diluted in reaction buffer and the kinase reaction was carried out in a total volume of 10 μl, for 60 minutes at 25° C. The 0% Phosphorylation (i.e. no ATP) and 100% Phosphorylation (i.e. synthetically phosphorylated peptide supplied) Assay Controls, included in each plate, allowed to calculate the percent phosphorylation achieved in the specific reaction well. The 0% Inhibition and 0% Phosphorylation (i.e. 100% Inhibition) Controls define the dynamic range in the screen. At the end of incubation, a secondary reaction (the Development Reaction) started by adding 5 μl of Development Reagent, containing a site-specific protease that recognizes and cleaves non-phosphorylated peptides, and was interrupted after 60 minutes with 5 μl/sample of Stop Reagent.
The compounds were tested in a range of concentrations 10^−6-10^−9 M.
Results are expressed as percentage of inhibition and the IC50 values were calculated by non-linear curve fitting using GraphPad™ Prism software.

Pharmacokinetics in rats = assay type: in vivo, rat; settings: 1 mg/kg orally
[3] = system: mechanical hyperalgesia in meniscal tear osteoarthritis; assay: Surgically induced meniscal tear osteoarthritis in the rat (MMT); assay type: in vivo; settings: for Pain threshold / Pain threshold: MPE (%): 10 mg/kg daily orally
Text: Male Sprague Dawley rats (Charles River) approximately 350 g body weight were used. Rats were anesthetized using 2.5% isoflurane in oxygen with a flow rate of 1 I per minute. The right hind leg was shaved and surgically prepared. The medial collateral ligament was exposed and transected. The meniscus was grasped with a hemostat and reflected proximally toward the femur. The meniscus was cut through its full thickness at the narrowest point. The connective tissue layer and the skin were closed with coated Vicryl 8-0 and 4-0 silk sutures, respectively. Sham operated animals underwent an identical procedure with the exception that the medial collateral ligament was exposed but not transected. After a recovery period of 2 weeks, mechanical hyperalgesia was evaluated for the following 4 weeks, once a week, before and 90 minutes after drugs administration. Pharmacological oral treatment was performed for 28 days, starting from 14 days after surgery. After 6 weeks from surgery, rats (ten animals per group) were sacrificed and the ipsilateral knee was removed for histopathological analysis.
The maximum possible effect (MPE %) was calculated by the following formula: 100*(Compound−Vehicle)/(Sham−Vehicle)

JB6 CI 41-5a (P+) = assay: Toxicity in JB6 cells (MTT method); assay type: cell-based, murine; settings: 3 μmolar, 24 hours of incubation
Method: Cell toxicity analysis in JB6 CI 41-5a (P+) is important to determine if the results obtained in GR assay are due to the pharmacological effect or to a toxicity effect of the products.
The murine epithelial cell line JB6 CI 41-5a (P+) (ATCC® Cat. # CRL-2010) was used to analyze the products cell toxicity by MTT method. 10^4 cells/well were plated in a 96× well plate MEM 5%. 48 h after plating the cells were pre-treated with the different compounds and positive standards for 1 h and then stimulated with TNFα (to simulate the same experimental conditions used in the gene reporter assay) for 4 and 24 h. At the end of the incubation time, the medium was removed and was substituted with a mixture 10:1 of MEM 5% MTT (2 mg/ml) for 1 h at 37° C. in the cell incubator. MTT is a tetrazolium salt especially useful for assaying the quantification of living metabolically active cells; it works by being metabolized by mitochondrial dehydrogenases to form a formazan dye (salt). After this incubation the supernatant was removed and the precipitated salt was dissolved with 100 μl of DMSO. The plate was then read at 540 nm. 100 μl of DMSO alone (without cells) were used as a blank, that was subtracted from the measure of each sample.

SMILES: O=C(Nc1ccc(CN2CCN(c3nccc(Nc4cc(C5CC5)[nH]n4)n3)CC2)cc1)c1nccnc1C(F)(F)F [Compound 36, N-(4-((4-(4-((5-cyclopropyl-1H-pyrazol-3-yl)amino)pyrimidin-2-yl)piperazin-1-yl)methyl)phenyl)-3-(trifluoromethyl)-pyrazine-2-carboxamide]
IC50 ([1]; Mus musculus): > 2000 nM
IC50 [2]: 8 nM

SMILES: O=C(Nc1cnc(CN2CCN(c3nccc(Nc4cc(C5CC5)[nH]n4)n3)CC2)cn1)c1ccccc1C(F)(F)F [Compound 41, N-(5-((4-(4-((5-cyclopropyl-1H-pyrazol-3-yl)amino)pyrimidin-2-yl)piperazin-1-yl)methyl)pyrazin-2-yl)-2-(trifluoromethyl)benzamide]
IC50 ([1]; Mus musculus): > 2000 nM
IC50 [2]: 4 nM

SMILES: CC(C)(C)n1nc(-c2ccc(Cl)cc2)c2c(N)ncnc21 [PP2, reference compound]
% protective effect vs. CFA induced hyperalgesia (CFA induced hyperalgesia; 3): 45%
% protective effect vs. CFA induced hyperalgesia (CFA induced hyperalgesia; 10): 47%
AUC (0-24 h) (Pharmacokinetics in rats): 160 ng·h/mL
IC50 [1]: 505 nM
Pain threshold ([3]; day 14 post surgery): 285 g
Pain threshold ([3]; day 21 post surgery): 278 g
Pain threshold: MPE (%) ([3]; day 21 post surgery): 1.8%
Pain threshold ([3]; day 28 post surgery): 267 g
Pain threshold: MPE (%) ([3]; day 28 post surgery): 0%
Pain threshold ([3]; day 35 post surgery): 262 g
Pain threshold: MPE (%) ([3]; day 35 post surgery): 0%
Pain threshold ([3]; day 42 post surgery): 253 g
Pain threshold: MPE (%) ([3]; day 42 post surgery): 0%
tolerability ([3]; rat, oral, doses higher than 10 mg/kg): not tolerated
percent residual cell vitality (JB6 CI 41-5a (P+)): 18%

More lines, in order of falling IC50 ([1]; Mus musculus), values ahead:

IC50 ([1]; Mus musculus): 1050 nM
IC50 [2]: 27 nM
SMILES: O=C(Nc1ccc(CN2CCN(c3nccc(Nc4cc(C5CC5)[nH]n4)n3)CC2)nc1)c1ccccc1C(F)(F)F [Compound 43, N-(6-((4-(4-((5-cyclopropyl-1H-pyrazol-3-yl)amino)pyrimidin-2-yl)piperazin-1-yl)methyl)pyridin-3-yl)-2-(trifluoromethyl)benzamide]

IC50 ([1]; Mus musculus): 247 nM
IC50 [2]: 9 nM
SMILES: O=C(Nc1ccc(CN2CCN(c3nccc(Nc4cc(C5CC5)[nH]n4)n3)CC2)cc1)c1ncccc1C(F)(F)F [Compound 26, N-(4-((4-(4-((5-cyclopropyl-1H-pyrazol-3-yl)amino)pyrimidin-2-yl)piperazin-1-yl)methyl)phenyl)-3-(trifluoromethyl)-picolinamide]
% protective effect vs. CFA induced hyperalgesia (CFA induced hyperalgesia; 3): 100%
